Measurements as given in patent publication US20260209213A1, “SELECTIVE ANGIOTENSIN II COMPOUNDS” (VICORE PHARMA AB, priority 2023, published 2026).
Where two headings read alike, the source gives them in different places. Each block holds one compound with its values, some of them ahead of it.

Key:
Format in all cases: in vitro ADME
[1] = Metabolic stability in pooled human liver microsomes; conditions: pooled human liver microsomes 0.5 mg/mL, 1 μM compound, 37° C.
Procedure: Pooled human liver microsomes in PBS at a concentration of 0.5 mg/mL was incubated with or without 1 mM NADPH for 70 min at 37° C. Test compound was added after 10 minutes to a final concentration of 1 μM. Samples were withdrawn at 0, 5, 15 and 60 minutes and added to test tubes containing acetonitrile, to stop the reaction, and with terfenadine, used as internal standard. After centrifugation at 10 000×g for 5 minutes the supernatant was diluted 1:1 with 1% formic acid. Samples were separated on a reverse phase column and detected by triple quadrupole MSMS (Agilant model 6540). The concentration of the parent compound at the different time points was measured with an external standard curve using terfenadine as internal standard and the initial metabolic rate in the presence or absence of NADPH calculated.

[2] = target: T1, CYP3A4 (Homo sapiens, UniProt P08684); test: CYP inhibition in human liver microsomes (midazolam); parameters: using isoform-specific substrates incubated with human liver microsomes; tissue Eurofins protocol ITEMG232; host or cells: human liver microsomes; conditions: probe midazolam, substrate midazolam, read-out: CYP3A4 midazolam Inh %
T1 sequence (P08684 whole entry, canonical isoform): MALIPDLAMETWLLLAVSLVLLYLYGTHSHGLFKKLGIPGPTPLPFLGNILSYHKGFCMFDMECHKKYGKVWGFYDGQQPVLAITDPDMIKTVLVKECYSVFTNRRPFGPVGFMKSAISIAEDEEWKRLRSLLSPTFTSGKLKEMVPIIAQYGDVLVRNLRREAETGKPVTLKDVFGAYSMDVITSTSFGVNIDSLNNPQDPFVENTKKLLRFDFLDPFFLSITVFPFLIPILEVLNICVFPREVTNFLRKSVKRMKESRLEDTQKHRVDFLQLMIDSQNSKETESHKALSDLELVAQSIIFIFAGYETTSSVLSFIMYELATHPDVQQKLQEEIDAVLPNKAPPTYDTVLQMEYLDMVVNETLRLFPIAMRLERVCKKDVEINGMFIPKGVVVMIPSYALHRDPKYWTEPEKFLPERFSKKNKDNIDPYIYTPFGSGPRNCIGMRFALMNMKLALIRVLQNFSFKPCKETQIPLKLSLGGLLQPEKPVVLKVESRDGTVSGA
Procedure: (§1) The following substrates were used; CYP1 Å phenacetin, […] bupropion, CYP2C8 paclitaxel and amodiaquine, CYP2C9 diclofenac, CYP2C19 omeprazole, CYP2D6 dextromethorphan, CYP3 Å midazolam and testosterone.
(§2) At the end of the incubation, the formation of metabolite was monitored by HPLC-MS/MS as the peak area response.

[3] = target: T2, CYP1A2 (Homo sapiens, UniProt P05177); test: in vitro; conditions: human liver microsomes, substrate phenacetin, read-out: CYP1A2 Inh %
T2 construct: using isoform-specific substrates incubated with human liver microsomes; tissue Eurofins protocol ITEMG232; host or cells: human liver microsomes
T2 sequence (P05177 whole entry, canonical isoform): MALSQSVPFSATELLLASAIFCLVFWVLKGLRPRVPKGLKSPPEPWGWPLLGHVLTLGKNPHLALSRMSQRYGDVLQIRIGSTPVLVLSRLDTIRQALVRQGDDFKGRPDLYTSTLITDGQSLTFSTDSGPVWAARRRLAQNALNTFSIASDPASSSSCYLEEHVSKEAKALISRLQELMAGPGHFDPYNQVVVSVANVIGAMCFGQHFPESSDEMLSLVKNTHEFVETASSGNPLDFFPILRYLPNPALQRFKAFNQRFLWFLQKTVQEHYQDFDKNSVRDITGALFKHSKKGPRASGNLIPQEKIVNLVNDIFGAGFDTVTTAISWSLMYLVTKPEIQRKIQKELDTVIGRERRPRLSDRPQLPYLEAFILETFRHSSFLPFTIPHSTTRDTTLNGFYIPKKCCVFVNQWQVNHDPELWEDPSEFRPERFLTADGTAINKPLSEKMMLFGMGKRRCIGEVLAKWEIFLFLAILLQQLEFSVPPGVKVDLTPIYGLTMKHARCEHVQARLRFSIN
Procedure: as §1, §2

[4] = tested on: CYP3A4&5; test: CYP inhibition in human liver microsomes (testosterone); conditions: probe testosterone, substrate testosterone, read-out: CYP3A4&5 testosterone Inh %
Procedure: as §1, §2

[5] = target: T3, CYP2D6 (Homo sapiens, UniProt P10635); test: CYP inhibition in human liver microsomes; conditions: probe dextromethorphan, substrate dextromethorphan, read-out: CYP2D6 Inh %
T3 construct: tissue Eurofins protocol ITEMG232; host or cells: human liver microsomes
T3 sequence (P10635 whole entry): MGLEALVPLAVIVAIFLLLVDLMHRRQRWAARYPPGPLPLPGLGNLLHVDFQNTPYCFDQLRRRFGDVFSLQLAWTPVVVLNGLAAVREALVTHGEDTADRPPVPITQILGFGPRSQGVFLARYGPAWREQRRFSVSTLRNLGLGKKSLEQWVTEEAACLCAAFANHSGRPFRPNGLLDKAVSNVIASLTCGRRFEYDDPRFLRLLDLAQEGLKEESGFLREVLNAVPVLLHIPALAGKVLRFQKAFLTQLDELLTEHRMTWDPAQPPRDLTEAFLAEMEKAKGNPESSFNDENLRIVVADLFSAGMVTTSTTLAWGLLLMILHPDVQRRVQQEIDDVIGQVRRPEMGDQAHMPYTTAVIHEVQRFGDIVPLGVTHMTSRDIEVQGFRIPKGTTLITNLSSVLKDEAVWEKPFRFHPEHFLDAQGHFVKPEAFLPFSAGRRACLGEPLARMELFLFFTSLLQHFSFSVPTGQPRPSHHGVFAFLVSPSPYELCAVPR
Procedure: as §1, §2

[6] = target: T4, CYP2C8 (Homo sapiens, UniProt P10632); test: CYP inhibition in human liver microsomes; conditions: probe paclitaxel and amodiaquine, substrates paclitaxel and amodiaquine, read-out: CYP2C8 Inh %
T4 construct: using isoform-specific substrates incubated with human liver microsomes; tissue Eurofins protocol ITEMG232; host or cells: human liver microsomes
T4 sequence (P10632 1-490): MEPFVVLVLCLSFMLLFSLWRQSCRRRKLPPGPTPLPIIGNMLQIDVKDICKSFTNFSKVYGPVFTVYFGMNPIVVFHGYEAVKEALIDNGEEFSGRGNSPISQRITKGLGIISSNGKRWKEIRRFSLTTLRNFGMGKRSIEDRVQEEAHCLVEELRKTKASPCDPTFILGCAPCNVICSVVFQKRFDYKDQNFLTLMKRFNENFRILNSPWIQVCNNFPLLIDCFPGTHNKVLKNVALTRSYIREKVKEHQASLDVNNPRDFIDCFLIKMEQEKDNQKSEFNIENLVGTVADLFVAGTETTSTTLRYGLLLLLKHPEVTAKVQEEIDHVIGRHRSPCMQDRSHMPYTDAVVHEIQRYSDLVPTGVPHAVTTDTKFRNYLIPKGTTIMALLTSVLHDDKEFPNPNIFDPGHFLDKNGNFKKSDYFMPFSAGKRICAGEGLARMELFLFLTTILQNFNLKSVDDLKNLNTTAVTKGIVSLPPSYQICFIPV
Procedure: as §1, §2

[7] = target: T5, CYP2C19 (Homo sapiens, UniProt P33261); test: CYP inhibition in human liver microsomes; conditions: probe omeprazole, substrate omeprazole, read-out: CYP2C19 Inh %
T5 construct: using isoform-specific substrates incubated with human liver microsomes; tissue Eurofins protocol ITEMG232; host or cells: human liver microsomes
T5 sequence (P33261 whole entry, canonical isoform): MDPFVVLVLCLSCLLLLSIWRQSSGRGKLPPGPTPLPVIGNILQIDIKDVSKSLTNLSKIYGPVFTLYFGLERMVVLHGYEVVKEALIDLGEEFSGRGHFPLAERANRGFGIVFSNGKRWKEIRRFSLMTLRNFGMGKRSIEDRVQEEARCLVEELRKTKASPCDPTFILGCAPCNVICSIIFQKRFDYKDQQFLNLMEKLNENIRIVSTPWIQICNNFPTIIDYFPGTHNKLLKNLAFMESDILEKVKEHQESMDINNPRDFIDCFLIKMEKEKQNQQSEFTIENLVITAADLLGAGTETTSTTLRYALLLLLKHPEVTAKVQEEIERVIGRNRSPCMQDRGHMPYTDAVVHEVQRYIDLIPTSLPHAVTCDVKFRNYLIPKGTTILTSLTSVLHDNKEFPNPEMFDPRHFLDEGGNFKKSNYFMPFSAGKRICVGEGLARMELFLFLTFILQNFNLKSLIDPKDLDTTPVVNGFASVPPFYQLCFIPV
Procedure: as §1, §2

[8] = target: T6, CYP2B6 (Homo sapiens, UniProt P20813); test: CYP inhibition in human liver microsomes; conditions: probe bupropion, substrate bupropion, read-out: CYP2B6 Inh %
T6 construct: using isoform-specific substrates incubated with human liver microsomes; tissue Eurofins protocol ITEMG232; host or cells: human liver microsomes
T6 sequence (P20813 1-491): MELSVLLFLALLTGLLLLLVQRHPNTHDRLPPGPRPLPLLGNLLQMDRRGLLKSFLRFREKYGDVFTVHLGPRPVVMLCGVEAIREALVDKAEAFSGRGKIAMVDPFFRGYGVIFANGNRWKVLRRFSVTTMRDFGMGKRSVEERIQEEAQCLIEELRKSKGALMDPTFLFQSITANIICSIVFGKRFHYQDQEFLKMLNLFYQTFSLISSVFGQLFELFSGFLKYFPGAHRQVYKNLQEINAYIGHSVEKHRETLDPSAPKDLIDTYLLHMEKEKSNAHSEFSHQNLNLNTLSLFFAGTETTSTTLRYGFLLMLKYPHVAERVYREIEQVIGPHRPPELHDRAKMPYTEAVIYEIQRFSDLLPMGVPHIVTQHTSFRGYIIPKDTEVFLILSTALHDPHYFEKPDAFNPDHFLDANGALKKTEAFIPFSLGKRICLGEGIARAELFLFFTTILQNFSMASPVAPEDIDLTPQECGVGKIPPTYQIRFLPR
Procedure: as §1, §2

[9] = target: T7, CYP2C9 (Homo sapiens, UniProt P11712); test: CYP inhibition in human liver microsomes; parameters: using isoform-specific substrates incubated with human liver microsomes; tissue Eurofins protocol ITEMG232; host or cells: human liver microsomes; conditions: probe diclofenac, substrate diclofenac, read-out: CYP2C9 Inh %
T7 sequence (P11712 whole entry, canonical isoform): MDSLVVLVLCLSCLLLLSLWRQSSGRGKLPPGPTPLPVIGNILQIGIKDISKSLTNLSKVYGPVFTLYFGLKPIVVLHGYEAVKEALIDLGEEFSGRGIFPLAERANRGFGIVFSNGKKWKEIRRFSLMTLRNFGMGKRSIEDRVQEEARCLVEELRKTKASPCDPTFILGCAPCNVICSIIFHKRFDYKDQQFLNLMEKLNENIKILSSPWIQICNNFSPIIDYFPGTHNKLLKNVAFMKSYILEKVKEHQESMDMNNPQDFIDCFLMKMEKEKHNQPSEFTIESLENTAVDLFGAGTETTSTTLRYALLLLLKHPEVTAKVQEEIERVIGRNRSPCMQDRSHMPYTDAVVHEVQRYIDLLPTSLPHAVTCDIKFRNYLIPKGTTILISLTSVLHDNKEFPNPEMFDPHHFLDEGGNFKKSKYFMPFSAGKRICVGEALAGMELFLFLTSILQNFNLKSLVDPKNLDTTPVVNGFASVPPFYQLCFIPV
Procedure: as §1, §2

[10] = Metabolic hydrolysis found during development of C21
[11] = target: T1, CYP3A4; test: CYP inhibition found during development of C21
[12] = target: T7, CYP2C9; test: CYP inhibition found during development of C21
[13] = with 1 mM NADPH, read-out: T1/2, + NaDPH
[14] = without NADPH, read-out: T1/2, no NaDPH

half-life at 1 μM [1, 13]: 1 h
half-life at 1 μM [1, 14]: > 1 h
SMILES: Cc1nccn1Cc1ccc(-c2cc(CC(C)C)sc2S(=O)(=O)Nc2ccccn2)cc1Cl [Example 2, 3-[3-Chloro-4-[(2-methylimidazol-1-yl)methyl]phenyl]-5-isobutyl-N-(2-pyridyl)thiophene-2-sulfonamide]

half-life at 1 μM [1, 13]: 0.883 h
half-life at 1 μM [1, 14]: > 1 h
SMILES: Cc1cc(-c2cc(CC(C)C)sc2S(=O)(=O)Nc2ccccn2)ccc1Cn1ccnc1C [Example 3, 5-Isobutyl-3-[3-methyl-4-[(2-methylimidazol-1-yl)methyl]phenyl]-N-(2-pyridyl)thiophene-2-sulfonamide]

inhibition at 10 µM [2]: 40.1%
inhibition at 10 µM [3]: 12.3%
inhibition at 10 µM [4]: 40.1%
half-life at 1 μM [1, 13]: > 1 h
half-life at 1 μM [1, 14]: > 1 h
inhibition at 10 µM [5]: 28.3%
inhibition at 10 µM [6]: 33.9%
inhibition at 10 µM [7]: 72.7%
inhibition at 10 µM [8]: 22.4%
inhibition at 10 µM [9]: 49.4%
SMILES: Cc1nccn1Cc1ccc(-c2cc(CC(C)C)sc2S(=O)(=O)Nc2ncccn2)cc1Cl [Example 1, 3-[3-Chloro-4-[(2-methylimidazol-1-yl)methyl]phenyl]-5-isobutyl-N-pyrimidin-2-yl-thiophene-2-sulfonamide]

inhibition of CYP 3A4 (in words) [11]: potent inhibitor
inhibition at 10 µM [4]: 94%
inhibition of CYP 2C9 (in words) [12]: potent inhibitor
SMILES: CCCCOC(=O)NS(=O)(=O)c1sc(CC(C)C)cc1-c1ccc(Cn2ccnc2)cc1 [Example C21, N-butyloxycarbonyl-3-(4-imidazol-1-ylmethylphenyl)-5-isobutylthiophene-2-sulfon-amide]
metabolic hydrolysis (in words) [10]: rapidly hydrolysed to an inactive sulfonamide metabolite
